Laboratory results taken from US20110229450A1, “ENZYMES AND METHODS FOR DEGRADING S-TRIAZINES AND DIAZINES” (Commonwealth Scientific and industrial Research Organisation, priority 2008, published 2011).
Where a chain is given by its changes, count along the chain named. Numbers in names are those of the source. Read-outs that look alike come from different tables or passages of the source.

B1: TrzN Wildtype: Wild-type TrzN triazine hydrolase, SEQ ID NO:1; codon optimised open reading frame TrzNco, SEQ ID NO:2 (protein, listed as Arthrobacter aurescens)
chain: MILIRGLTRVITFDDQERELEDADILIDGPKIVAVGKDLSDRSVSRTIDGRGMIALPGLINSHQHLYEGAMRAIPQLERVTMASWLEGVLTRSAGWWRDGKFGPDVIREVARAVLLESLLGGITTVADQHLFFPGATADSYIDATIEAATDLGIRFHAARSSMTLGKSEGGFCDDLFVEPVDRVVQHCLGLIDQYHEPEPFGMVRIALGPCGVPYDKPELFEAFAQMAADYDVRLHTHFYEPLDAGMSDHLYGMTPWRFLEKHGWASDRVWLAHAVVPPREEIPEFADAGVAIAHLIAPDLRLGWGLAPIREYLDAGITVGFGTTGSASNDGGNLLGDLRLAALAHRPADPNEPEKWLSARELLRMATRGSAECLGRPDLGVLEEGRAADIACWRLDGVDRVGVHDPAIGLIMTGLSDRASLVVVNGQVLVENERPVLADLERIVANTTALIPKNL
B2: L335M (protein)
chain: B1 chain with L335M
B3: D38N (protein)
chain: B1 chain with D38N
B4: T91S (protein)
chain: B1 chain with T91S
B5: S161G (protein)
chain: B1 chain with S161G
B6: P210A (protein)
chain: B1 chain with P210A

How the values were obtained:
[1] = system: TrzN cc3.2; experiment: Substrate range: hydrolysis of triazines by purified TrzN cc3.2 (loss of absorbance at 264 nm); format: biochemical; conditions: for Hydrolysis by TrzN cc3.2: purified enzyme; for Relative Activity in TrzN cc3.2: specific activity at 100 μM substrate and 41 nM TrzN cc3.2, ametryn = 1
[2] = system: TrzN; conditions: from Shapir et al. (2006); ametryn = 1; cited from earlier work
[3] = system: Apo-TrzNcc3.2; experiment: Saturation of Apo-TrzNcc3.2 with Zn^2+; format: binding
[4] = read-out: Kd for zinc; cited from earlier work
[5] = format: cell-based, E. coli strain BL21 λDE3; conditions: for Time to clear: 1% atrazine (w/v), 1 mM IPTG LB agar plates, 37° C., BL21 λDE3 pETcc2; for atrazine dechlorinase activity / clearing rate after substitution, compared with wild-type or parental gene: site-saturation and random mutagenesis
[6] = Atrazine clearing plate assay, low-level constitutive vector pCS150 in three E. coli strains; format: cell-based; conditions: E. coli JM109, DH10β and BL21 λDE3, 37° C.
Method: Random and site-saturated libraries were screened using LB agar plates supplemented with 200 μg.mL^−1 ampicillin, 1 μM IPTG and impregnated with 1 mg.mL^−1 atrazine (90% atrazine w/w; Gesaprim 900 WG, Syngenta). […] The level of activity was determined by the rate at which the clarification occurred.
The entire coding region for both TrzNcc3.2 and wild-type TrzN were moved from the inducible, high-level expression vector pETcc2 into a low-level, constitutive expression vector (pCS150, Scott et al., 2009). The resultant vectors were used to transform E. coli JM109, DH10β, and BL21 λDE3 cells. The six resultant strains were tested for their rates of clearing using the atrazine clearing plate assay.

[7] = read-out: Km for atrazine; cited from earlier work
[8] = from 5 litres; Shapir et al. (2005); cited from earlier work

| Molecule | Hydrolysis by TrzN cc3.2 [1] | Relative Activity in TrzN cc3.2 [1] | other results |
| --- | --- | --- | --- |
| CCNc1nc(NC(C)C)nc(SC)n1 [Ametryn, N2-ethyl-N4-isopropyl-6-methylthio-1,3,5-triazine-2,4-diamine] | able to hydrolyse | 1 | Relative Activity in TrzN* [2]: 1 |
| CCNc1nc(Cl)nc(NC(C)C)n1 [Atrazine, 6-chloro-N-ethyl-N′-(1-methylethyl)-1,3,5-triazine-2,4-diamine] | able to hydrolyse | 1.36 | Relative Activity in TrzN* [2]: 0.16 |
| CCNc1nc(Cl)nc(NC(C)(C)C#N)n1 [Cyanozine, 2-[[4-chloro-6-(ethyamino)-1,3,5-triazin-2-yl]amino]-2-methylpropanenitrile] | able to hydrolyse | 0.43 | – |
| CCN(CC)c1nc(Cl)nc(NC(C)C)n1 [Ipazine, 6-chloro-N,N-diethyl-N′-(1-methylethyl)-1,3,5-triazine-2,4-diamine] | able to hydrolyse | 0.07 | – |
| CSc1nc(NC(C)C)nc(NC(C)C)n1 [Prometryn, N2,N4-diisopropyl-6-methylthio-1,3,5-triazine-2,4-diamine] | able to hydrolyse | 1 | – |
| CC(C)Nc1nc(Cl)nc(NC(C)C)n1 [Propazine, 6-chloro-N,N′-bis(1-methylethyl)-1,3,5-triazine-2,4-diamine] | able to hydrolyse | 0.86 | – |
| CCNc1nc(Cl)nc(NCC)n1 [Simazine, 6-chloro-N,N″-diethyl-1,3,5-triazine-2,4-diamine] | able to hydrolyse | 1.36 | Relative Activity in TrzN* [2]: 0.41 |
| CCNc1nc(NCC)nc(SC)n1 [Simetryn, N2,N4-diethyl-6-methylthio-1,3,5-triazine-2,4-diamine] | able to hydrolyse | 0.57 | Relative Activity in TrzN* [2]: 0.14 |
| CCNc1nc(Cl)nc(N(CC)CC)n1 [Trietazine, 6-chloro-N,N,N′-triethyl-1,3,5-triazine-2,4-diamine] | able to hydrolyse | 0.04 | – |
| [Zn+2] [Zn^2+] | – | – | EC50 ([3]; read-out: ZnCl2 concentration at which half maximal activity was recovered): 2600 nM; Kd ([3]; read-out: dissociation constant for Zn^2+): 2600 nM |
| superoxide dismutase | – | – | Kd [4]: 0.01 nM |
| B1 | – | – | Time to clear [5]: None; Time to clear ([5]; listed as trzNco): > 30 days; Time to clear [6]: > 12 days; Km [7]: 20 µM; yield of partial purification [8]: 2.8 mg |
| B2 | – | – | atrazine dechlorinase activity / clearing rate after substitution, compared with wild-type or parental gene [5]: improved activities |
| B3 | – | – | clearing phenotype ([5]; D38X site saturation library in a L131P A159V background): apparently improved clearing phenotypes |
| B4 | – | – | atrazine dechlorinase activity / clearing rate after substitution, compared with wild-type or parental gene [5]: improved activities |
| B5 | – | – | atrazine dechlorinase activity / clearing rate after substitution, compared with wild-type or parental gene [5]: improved activities |
| B6 | – | – | atrazine dechlorinase activity / clearing rate after substitution, compared with wild-type or parental gene [5]: improved activities |
